Source: US20050148653A1, “Polymaleimide compounds and their medical use” (priority 2001, published 2005)
Read-outs that look alike come from different tables or passages of the source.

Legend:
Chlamydia trachomatis = assay: Chlamydia assay: transient treatment of Chlamydia with maleimides, infection of McCoy cells, iodine-stained inclusions counted; format: cell-based; conditions: for activity relative to bis maleimide equivalent: chlamydia infection of McCoy cells; for IODINE-STAINED INCLUSIONS/FIELD F1: field 1; for IODINE-STAINED INCLUSIONS/FIELD F2: field 2; for IODINE-STAINED INCLUSIONS/FIELD F3: field 3; for IODINE-STAINED INCLUSIONS/FIELD F4: field 4; for IODINE-STAINED INCLUSIONS/FIELD F5: field 5; for MEAN COUNT/FIELD (iodine-stained inclusions): mean of 5 fields; for TOTAL COUNT/FIELDS (iodine-stained inclusions): sum of 5 fields; for COMMENTS: inclusions seen on entire coverslip: re-examined under low power; for inhibition of the infection of McCoy cells with chlamydia: transient exposure of chlamydia to compound
Procedure: Purified Chlamydia trachomatis (250 μl) was added to 250 μl of each compound concentration and the mixtures incubated at room temperature for 5 minutes. The tubes were then centrifuged (15000 rpm, 15 minutes), the supernatant decanted and the pellet washed serum free MEM (with 0.5 mls). This step was repeated and the resultant pellet resuspended MEM (in 0.5 ml) and inoculated into a confluent shell vial (coverslip) cultures of McCoy cells. The cultures were centrifuged (3000 rpm, 1 hour at 37° C.) and incubated for a further 2 hours prior to being changed onto MEM with 10% foetal calf serum, I μg/rl cycloheximide, 0.5% added glucose, vancomycin, streptomycin and amphoteracin B (Fungizone). The cultures were incubated for 68 hours, fixed in methanol and stained with Lugol's iodine. 3 replicates of each positive control (with and without DMSO) were included, as well as 2 uninoculated cell controls. Each coverslip culture was examined using low power (10×) objective to ensure that inclusions were evenly distributed and 5 high power (×40) fields were selected at random from different areas of the coverslip. Iodine stained inclusions were counted. Where no inclusions were seen on high power, the culture was re-examined under low power. Table 1. Effect of Transient Treatment with maleimides on Chlamydia Infection of McCoy Cell In Vitro. Chlamydia was pre-treated with each of the indicated maleimides for 5 minutes and the compound removed by centrifugation. McCoy cells were then exposed to the compound pre-treated chlamydia for 68 hours and inclusions counted following staining of cells with Lugols iodine.

HIV (IHV-1RF) = assay: Anti-viral (virucidal) assay: plate-bound HIV treated 10 minutes, C8166 cells added, syncytium score and XTT; format: cell-based; conditions: for Syncytia score day 5 (quadruplicate wells) / Syncytia score day 6 (quadruplicate wells): C8166 cells; for Mean Optical Readings at 450 nm: XTT cell viability
Procedure: HIV was attached to the surface of 96-well cell culture plates using 100 μl of 50 μg/ml poly-L-lysine hydrobromide (PLL) of molecular weight >300 K for 1 h at RT. The outer wells were left uncoated and filled with 250 μl of PBS to counteract the effects of evaporation. The coated wells were washed twice with PBS and 25 μl of RPMI 1640 medium containing 5×10^3 TCID50 of IHV-1RF was added and incubated for 1 h at RT. The wells were then washed twice with PBS and 25 μl of varying concentrations of the test compounds made up with serum free medium (containing a constant 10% DMSO) were added to the wells in quadruplicate and the plates incubated at 37° C. for 10 minutes. The wells were again washed twice with PBS and 5×10^4 C8166 cells in a volume of 300 μl distributed to each well and the plates incubated for 5 and 6 days respectively. On days 5 and 6 the cells were assessed microscopically for the presence of cytopathic effect (syncytium formation) and recorded. In order to quantify the cytopathic effect, XIT which is metabolised by viable but not dead cells, was added and the absorbance read at 450 nm after […] incubation at 37° C.
An assessment of viral cytopathic effect was made microscopically on days 5 and 6, but the end point of the experiment was on day 6 when the level of virus infection (as determined by cell viability) was quantified by the use of XTT.

[1] = final conc 0.02 (M), working conc 0.04 (M)
[2] = final conc 0.4 (M), working conc 0.8 (M)
[3] = final conc 1 (M), working conc 2 (M), 5 minutes pre-treatment, McCoy cells 68 hours
[4] = final conc 1 (M), working conc 2 (M)

Compound: COCCOCCOCCOCCOc1ccc(N2C(=O)C=CC2=O)cc1 [Compound 3, PEG(5) phenyl maleimide]
- activity relative to bis maleimide equivalent (Chlamydia trachomatis): less active than its PEG bis (phenyl maleimide) equivalent
- IODINE-STAINED INCLUSIONS/FIELD F1 (Chlamydia trachomatis; [1]): 12 inclusions/field
- IODINE-STAINED INCLUSIONS/FIELD F2 (Chlamydia trachomatis; [1]): 24 inclusions/field
- IODINE-STAINED INCLUSIONS/FIELD F3 (Chlamydia trachomatis; [1]): 9 inclusions/field
- IODINE-STAINED INCLUSIONS/FIELD F4 (Chlamydia trachomatis; [1]): 29 inclusions/field
- IODINE-STAINED INCLUSIONS/FIELD F5 (Chlamydia trachomatis; [1]): 22 inclusions/field
- MEAN COUNT/FIELD (iodine-stained inclusions) (Chlamydia trachomatis; [1]): 19 inclusions/field
- TOTAL COUNT/FIELDS (iodine-stained inclusions) (Chlamydia trachomatis; [1]): 96
- IODINE-STAINED INCLUSIONS/FIELD F1 (Chlamydia trachomatis; [2]): 4 inclusions/field
- IODINE-STAINED INCLUSIONS/FIELD F2 (Chlamydia trachomatis; [2]): 7 inclusions/field
- IODINE-STAINED INCLUSIONS/FIELD F3 (Chlamydia trachomatis; [2]): 5 inclusions/field
- IODINE-STAINED INCLUSIONS/FIELD F4 (Chlamydia trachomatis; [2]): 8 inclusions/field
- IODINE-STAINED INCLUSIONS/FIELD F5 (Chlamydia trachomatis; [2]): 4 inclusions/field
- MEAN COUNT/FIELD (iodine-stained inclusions) (Chlamydia trachomatis; [2]): 6 inclusions/field
- TOTAL COUNT/FIELDS (iodine-stained inclusions) (Chlamydia trachomatis; [2]): 28
- IODINE-STAINED INCLUSIONS/FIELD F1 (Chlamydia trachomatis; [3]): 0 inclusions/field
- IODINE-STAINED INCLUSIONS/FIELD F2 (Chlamydia trachomatis; [4]): 0 inclusions/field
- IODINE-STAINED INCLUSIONS/FIELD F3 (Chlamydia trachomatis; [4]): 0 inclusions/field
- IODINE-STAINED INCLUSIONS/FIELD F4 (Chlamydia trachomatis; [4]): 0 inclusions/field
- IODINE-STAINED INCLUSIONS/FIELD F5 (Chlamydia trachomatis; [4]): 0 inclusions/field
- MEAN COUNT/FIELD (iodine-stained inclusions) (Chlamydia trachomatis; [4]): 0 inclusions/field
- COMMENTS: inclusions seen on entire coverslip (Chlamydia trachomatis; [4]): 15
- TOTAL COUNT/FIELDS (iodine-stained inclusions) (Chlamydia trachomatis; [4]): 0
- inhibition of the infection of McCoy cells with chlamydia (Chlamydia trachomatis): dose-dependent inhibition
- Syncytia score day 5 (quadruplicate wells) (HIV (IHV-1RF); Conc 0.003 mM): ++++ (50-100% syncytia)
- Syncytia score day 6 (quadruplicate wells) (HIV (IHV-1RF); Conc 0.003 mM, day 6): ++++ (50-100% syncytia)
- Mean Optical Readings at 450 nm (HIV (IHV-1RF); Conc 0.003 mM, day 6): 0.5018
- Syncytia score day 5 (quadruplicate wells) (HIV (IHV-1RF); Conc 0.01 mM): +++ (25-50% syncytia)
- Syncytia score day 6 (quadruplicate wells) (HIV (IHV-1RF); Conc 0.01 mM, day 6): ++++ (50-100% syncytia)
- Mean Optical Readings at 450 nm (HIV (IHV-1RF); Conc 0.01 mM, day 6): 0.5085
- Syncytia score day 5 (quadruplicate wells) (HIV (IHV-1RF); Conc 0.03 mM): +++ (25-50% syncytia)
- Syncytia score day 6 (quadruplicate wells) (HIV (IHV-1RF); Conc 0.03 mM, day 6): ++++ (50-100% syncytia)
- Mean Optical Readings at 450 nm (HIV (IHV-1RF); Conc 0.03 mM, day 6): 0.5012
- Syncytia score day 5 (quadruplicate wells) (HIV (IHV-1RF); Conc 0.1 mM): +++ (25-50% syncytia)
- Syncytia score day 6 (quadruplicate wells) (HIV (IHV-1RF); Conc 0.1 mM, day 6): ++++ (50-100% syncytia)
- Mean Optical Readings at 450 nm (HIV (IHV-1RF); Conc 0.1 mM, day 6): 0.5118
- Syncytia score day 5 (quadruplicate wells) (HIV (IHV-1RF); Conc 0.3 mM): +++ (25-50% syncytia)
- Syncytia score day 6 (quadruplicate wells) (HIV (IHV-1RF); Conc 0.3 mM, day 6): ++++ (50-100% syncytia)
- Mean Optical Readings at 450 nm (HIV (IHV-1RF); Conc 0.3 mM, day 6): 0.5092
- Syncytia score day 5 (quadruplicate wells) (HIV (IHV-1RF); Conc 1 mM): +++ (25-50% syncytia)
- Syncytia score day 6 (quadruplicate wells) (HIV (IHV-1RF); Conc 1 mM, day 6): +++ (25-50% syncytia)
- Mean Optical Readings at 450 nm (HIV (IHV-1RF); Conc 1 mM, day 6): 0.5268
- IC50 (HIV (IHV-1RF); Human immunodeficiency virus 1, C8166, XTT, day 6, virus treated 10 minutes, read-out: IC50 (virucidal)): > 1000 µM
- virucidal activity (HIV (IHV-1RF); at concentrations up to 1.0 mM): no virucidal activity

Compound: CCN1C(=O)C=CC1=O [Compound 4, Ethyl maleimide]
- activity relative to bis maleimide equivalent (Chlamydia trachomatis): less active than its bis maleimide equivalent
- IODINE-STAINED INCLUSIONS/FIELD F1 (Chlamydia trachomatis; [1]): 1 inclusions/field
- IODINE-STAINED INCLUSIONS/FIELD F2 (Chlamydia trachomatis; [1]): 11 inclusions/field
- IODINE-STAINED INCLUSIONS/FIELD F3 (Chlamydia trachomatis; [1]): 6 inclusions/field
- IODINE-STAINED INCLUSIONS/FIELD F4 (Chlamydia trachomatis; [1]): 4 inclusions/field
- IODINE-STAINED INCLUSIONS/FIELD F5 (Chlamydia trachomatis; [1]): 2 inclusions/field
- MEAN COUNT/FIELD (iodine-stained inclusions) (Chlamydia trachomatis; [1]): 5 inclusions/field
- TOTAL COUNT/FIELDS (iodine-stained inclusions) (Chlamydia trachomatis; [1]): 24
- IODINE-STAINED INCLUSIONS/FIELD F1 (Chlamydia trachomatis; [2]): 0 inclusions/field
- IODINE-STAINED INCLUSIONS/FIELD F2 (Chlamydia trachomatis; [2]): 0 inclusions/field
- IODINE-STAINED INCLUSIONS/FIELD F3 (Chlamydia trachomatis; [2]): 0 inclusions/field
- IODINE-STAINED INCLUSIONS/FIELD F4 (Chlamydia trachomatis; [2]): 0 inclusions/field
- IODINE-STAINED INCLUSIONS/FIELD F5 (Chlamydia trachomatis; [2]): 0 inclusions/field
- MEAN COUNT/FIELD (iodine-stained inclusions) (Chlamydia trachomatis; [2]): 0 inclusions/field
- COMMENTS: inclusions seen on entire coverslip (Chlamydia trachomatis; [2]): No
- TOTAL COUNT/FIELDS (iodine-stained inclusions) (Chlamydia trachomatis; [2]): 0
- IODINE-STAINED INCLUSIONS/FIELD F1 (Chlamydia trachomatis; [3]): 0 inclusions/field
- IODINE-STAINED INCLUSIONS/FIELD F2 (Chlamydia trachomatis; [4]): 0 inclusions/field
- IODINE-STAINED INCLUSIONS/FIELD F3 (Chlamydia trachomatis; [4]): 0 inclusions/field
- IODINE-STAINED INCLUSIONS/FIELD F4 (Chlamydia trachomatis; [4]): 0 inclusions/field
- IODINE-STAINED INCLUSIONS/FIELD F5 (Chlamydia trachomatis; [4]): 0 inclusions/field
- MEAN COUNT/FIELD (iodine-stained inclusions) (Chlamydia trachomatis; [4]): 0 inclusions/field
- COMMENTS: inclusions seen on entire coverslip (Chlamydia trachomatis; [4]): No
- TOTAL COUNT/FIELDS (iodine-stained inclusions) (Chlamydia trachomatis; [4]): 0
- inhibition of the infection of McCoy cells with chlamydia (Chlamydia trachomatis): dose-dependent inhibition
- Syncytia score day 5 (quadruplicate wells) (HIV (IHV-1RF); Conc 0.01 mM): ++++ (50-100% syncytia)
- Syncytia score day 6 (quadruplicate wells) (HIV (IHV-1RF); Conc 0.01 mM, day 6): ++++ (50-100% syncytia)
- Mean Optical Readings at 450 nm (HIV (IHV-1RF); Conc 0.01 mM, day 6): 0.48
- Syncytia score day 5 (quadruplicate wells) (HIV (IHV-1RF); Conc 0.03 mM): ++++ (50-100% syncytia)
- Syncytia score day 6 (quadruplicate wells) (HIV (IHV-1RF); Conc 0.03 mM, day 6): ++++ (50-100% syncytia)
- Mean Optical Readings at 450 nm (HIV (IHV-1RF); Conc 0.03 mM, day 6): 0.4915
- Syncytia score day 5 (quadruplicate wells) (HIV (IHV-1RF); Conc 0.1 mM): ++++ (50-100% syncytia)
- Syncytia score day 6 (quadruplicate wells) (HIV (IHV-1RF); Conc 0.1 mM, day 6): ++++ (50-100% syncytia)
- Mean Optical Readings at 450 nm (HIV (IHV-1RF); Conc 0.1 mM, day 6): 0.5048
- Syncytia score day 5 (quadruplicate wells) (HIV (IHV-1RF); Conc 0.3 mM): ++++ (50-100% syncytia)
- Syncytia score day 6 (quadruplicate wells) (HIV (IHV-1RF); Conc 0.3 mM, day 6): ++++ (50-100% syncytia)
- Mean Optical Readings at 450 nm (HIV (IHV-1RF); Conc 0.3 mM, day 6): 0.502
- Syncytia score day 5 (quadruplicate wells) (HIV (IHV-1RF); Conc 1 mM): +++ (25-50% syncytia)
- Mean Optical Readings at 450 nm (HIV (IHV-1RF); Conc 1 mM, day 6): 0.5275
- Syncytia score day 5 (quadruplicate wells) (HIV (IHV-1RF); Conc 3 mM): 0
- Syncytia score day 6 (quadruplicate wells) (HIV (IHV-1RF); Conc 3 mM, day 6): 0
- Mean Optical Readings at 450 nm (HIV (IHV-1RF); Conc 3 mM, day 6, No Virus 1.84955, Virus Control 0.5091): 1.6305
- IC50 (HIV (IHV-1RF); Human immunodeficiency virus 1, C8166, read-out: IC50 (virucidal)): 1900 µM
